Assay results taken from US9676818B2, “Toll-like receptor 2-agonistic lipopeptides, and method of making the same” (University of Kansas, priority 2013, dated 2017).
“Also recorded” adds a separate entry of the source. Like-named read-outs stand apart in the source and are kept apart here.

What was measured:
human TLR2 = human TLR2 (Homo sapiens (Human), UniProt O60603); assay: human TLR2-specific NF-κB reporter gene assay (HEK-Blue cells); type: cell-based
From the text: (§1) The induction of NF-κB in a TLR2-specific reporter gene assay was quantified using HEK-BLUE™ cells as previously described (Wu, W. et al., J. Med. Chem. 2010, 53, 3198-3213). HEK293 cells stably transfected with either human TLR2 or murine TLR2 and alkaline phosphatase (sAP) were obtained from InvivoGen (San Diego, Calif.), and were maintained in HEK-BLUE™ Selection medium containing zeocin and normocin. Stable expression of secreted alkaline phosphatase (sAP) under control of NF-κB promoters is inducible by TLR2 agonists, and extracellular sAP in the supernatant is proportional to NF-κB induction. HEK-Blue cells were incubated at a density of ˜10^5 cells/mL in a volume of 80 μL/well, in 384-well, flat-bottomed, cell culture-treated microtiter plates until confluency was achieved, and then stimulated with serially-diluted aliquots of compounds for 12 h. sAP was assayed spectrophoto-metrically using an alkaline phosphatase-specific chromogen (present in the HEK-detection medium as supplied by the vendor) at 620 nm. For antagonism assays, HEK-Blue cells were incubated at a density of ˜10^5 cells/mL in a volume of 80 μL/well and stimulated with either PAM2CS (1 μg/mL) or lipoteichoic acid (1 μg/mL) in the presence of graded concentrations of the test compounds as described for TLR7 previously (Shukla, N. M.; et al., Bioorg. Med. Chem. Lett. 2009, 19, 2211-2214; Shukla, N. M. et al., Bioorg. Med. Chem. 2011, 19, 3801-3811).

[1] = tested on: anti-bovine α-lactalbumin IgG responses; assay: Rabbit immunization with bovine α-lactalbumin, antigen-specific IgG ELISA; type: in vivo
Protocol: All experiments were performed in accordance with institutional guidelines (University of Kansas IACUC permit #119-06) which specifically approved this study. All antigen/adjuvant preparations were entirely aqueous; no liposomal or emulsifying agents were used. Cohorts of adult female New Zealand White rabbits (n=4) were immunized intramuscularly in the flank region with (a) 100 μg of bovine α-lactalbumin in 0.2 mL saline, or (b) 100 μg of bovine α-lactalbumin plus 100 μg of compound 25 in 0.2 mL saline, or (d) 100 μg of bovine α-lactalbumin plus 100 μg of dual TLR2-agonistic PAM2CSK4 (control). Pre-immune test-bleeds were first obtained via venipuncture of the marginal vein of the ear. […] A final test-bleed was performed via the marginal vein of the ear on Day 38. Sera were stored at −80° C. until used.
Bovine α-lactalbumin-specific ELISAs were performed in 384-well format using automated liquid handling methods as described (Shukla, N. M. et al. Bioorg. Med. Chem. Lett. 2011, 21, 3232-3236). Examination of the affinity of antigen-specific IgG using chaotropic ELISA (Pullen, G. R. et al. J. Immunol. Methods 1986, 86, 83-87 and Macdonald, R. A. et al. J. Immunol. Methods 1988, 106, 191-194). […] Plates were then read at 450 nm using a SpectraMax M4 device (Molecular Devices, Sunnyvale, Calif.).

Aqueous solubility = type: physicochemical
[2] = Stability of aqueous stocks; type: physicochemical
murine TLR2 = murine TLR2 (Mus musculus (Mouse), UniProt Q9QUN7); assay: murine TLR2-specific NF-κB reporter gene assay (HEK-Blue cells); type: cell-based
From the text: as §1, with “For antagonism assays, HEK-Blue cells were incubated at a density of ˜10^5 cells/mL in a volume of 80 μL/well and stimulated with either PAM2CS (1 μg/mL) or lipoteichoic acid (1 μg/mL) in the presence of graded concentrations of the test compounds as described for TLR7 previously (Shukla, N. M.; et al., Bioorg. Med. Chem. Lett. 2009, 19, 2211-2214; Shukla, N. M. et al., Bioorg. Med. Chem. 2011, 19, 3801-3811).” left out

TLR7 = TLR7 (Homo sapiens (Human), UniProt Q9NYK1); assay: primary human TLR-specific reporter gene assay, TLR7 cell line; type: cell-based; settings: relative to parent compounds
[3] = human TLR2-specific reporter gene assay, ND = no activity detected at 10 μM, read-out: TLR2-Agonistic Activity (EC50 in nM)
[4] = human TLR2-specific reporter gene assay

Chain of murine TLR2 (Q9QUN7 25-784): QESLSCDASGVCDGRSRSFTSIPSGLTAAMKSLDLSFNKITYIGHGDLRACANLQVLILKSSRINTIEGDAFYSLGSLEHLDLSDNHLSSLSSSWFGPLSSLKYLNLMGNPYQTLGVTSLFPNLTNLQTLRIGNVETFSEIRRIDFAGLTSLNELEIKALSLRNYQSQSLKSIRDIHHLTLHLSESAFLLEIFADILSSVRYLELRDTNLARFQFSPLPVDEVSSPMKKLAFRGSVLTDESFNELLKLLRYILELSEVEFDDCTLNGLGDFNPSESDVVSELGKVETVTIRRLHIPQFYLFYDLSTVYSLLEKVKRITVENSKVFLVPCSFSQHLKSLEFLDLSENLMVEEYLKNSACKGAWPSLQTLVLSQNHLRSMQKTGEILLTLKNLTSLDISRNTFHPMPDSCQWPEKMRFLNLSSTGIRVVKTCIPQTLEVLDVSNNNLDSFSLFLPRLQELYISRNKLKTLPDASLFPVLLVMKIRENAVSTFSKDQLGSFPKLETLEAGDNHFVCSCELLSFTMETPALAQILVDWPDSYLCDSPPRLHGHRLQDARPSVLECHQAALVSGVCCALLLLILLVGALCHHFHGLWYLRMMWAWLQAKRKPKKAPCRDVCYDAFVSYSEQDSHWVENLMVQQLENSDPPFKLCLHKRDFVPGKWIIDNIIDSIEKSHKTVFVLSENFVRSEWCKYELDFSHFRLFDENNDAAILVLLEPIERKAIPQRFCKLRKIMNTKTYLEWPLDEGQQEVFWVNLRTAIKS
Chain of human TLR2 (O60603 21-784): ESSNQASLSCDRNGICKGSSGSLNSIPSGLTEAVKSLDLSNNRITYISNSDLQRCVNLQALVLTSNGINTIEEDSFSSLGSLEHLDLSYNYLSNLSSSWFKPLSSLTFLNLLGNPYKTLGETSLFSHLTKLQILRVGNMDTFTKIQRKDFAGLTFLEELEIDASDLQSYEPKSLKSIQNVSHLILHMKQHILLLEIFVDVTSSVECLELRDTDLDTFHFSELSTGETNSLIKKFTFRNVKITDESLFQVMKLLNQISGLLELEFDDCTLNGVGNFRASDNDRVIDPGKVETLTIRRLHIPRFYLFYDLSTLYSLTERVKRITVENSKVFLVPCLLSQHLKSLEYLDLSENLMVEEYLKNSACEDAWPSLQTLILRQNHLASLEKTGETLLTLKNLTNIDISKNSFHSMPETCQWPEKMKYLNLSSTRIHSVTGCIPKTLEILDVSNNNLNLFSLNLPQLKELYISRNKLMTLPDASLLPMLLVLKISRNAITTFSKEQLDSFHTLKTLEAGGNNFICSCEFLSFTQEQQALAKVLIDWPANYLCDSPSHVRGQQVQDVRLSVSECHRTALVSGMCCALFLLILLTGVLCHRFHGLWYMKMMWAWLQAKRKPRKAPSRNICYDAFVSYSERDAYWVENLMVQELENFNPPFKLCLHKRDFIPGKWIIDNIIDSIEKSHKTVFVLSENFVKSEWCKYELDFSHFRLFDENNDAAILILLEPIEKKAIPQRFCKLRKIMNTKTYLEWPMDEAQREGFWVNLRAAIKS
Chain of TLR7 (Q9NYK1 27-1049): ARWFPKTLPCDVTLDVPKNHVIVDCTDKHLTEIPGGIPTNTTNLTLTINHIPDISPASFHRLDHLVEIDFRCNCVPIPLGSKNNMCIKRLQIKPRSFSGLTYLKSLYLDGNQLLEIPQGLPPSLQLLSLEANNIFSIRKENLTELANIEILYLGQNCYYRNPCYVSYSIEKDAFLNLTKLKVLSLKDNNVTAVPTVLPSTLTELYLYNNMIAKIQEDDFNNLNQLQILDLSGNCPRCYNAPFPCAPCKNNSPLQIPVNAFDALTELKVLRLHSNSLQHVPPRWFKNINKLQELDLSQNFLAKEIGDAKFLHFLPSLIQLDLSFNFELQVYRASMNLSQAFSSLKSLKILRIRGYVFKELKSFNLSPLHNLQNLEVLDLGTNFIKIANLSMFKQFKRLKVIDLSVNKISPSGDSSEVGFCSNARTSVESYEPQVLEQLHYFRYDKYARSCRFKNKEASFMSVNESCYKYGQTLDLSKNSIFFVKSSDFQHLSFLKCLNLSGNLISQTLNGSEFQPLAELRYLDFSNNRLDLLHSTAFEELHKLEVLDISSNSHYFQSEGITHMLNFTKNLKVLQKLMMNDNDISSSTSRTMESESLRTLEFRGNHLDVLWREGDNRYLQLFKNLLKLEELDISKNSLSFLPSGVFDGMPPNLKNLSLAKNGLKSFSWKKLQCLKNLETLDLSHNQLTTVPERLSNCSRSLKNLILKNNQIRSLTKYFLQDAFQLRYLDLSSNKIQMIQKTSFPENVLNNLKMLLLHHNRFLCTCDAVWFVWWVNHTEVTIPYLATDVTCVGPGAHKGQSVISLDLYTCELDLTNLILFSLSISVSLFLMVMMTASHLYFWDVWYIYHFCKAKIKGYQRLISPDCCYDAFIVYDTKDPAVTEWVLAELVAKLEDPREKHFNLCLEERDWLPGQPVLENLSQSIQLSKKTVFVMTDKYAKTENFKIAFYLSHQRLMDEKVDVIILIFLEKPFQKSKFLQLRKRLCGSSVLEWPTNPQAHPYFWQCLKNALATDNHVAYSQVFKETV

Compound | EC50 (human TLR2; [3]) [nM] | water solubility (Aqueous solubility) | hTLR2-agonistic activity in words (human TLR2; hTLR2 reporter gene assay) | also measured
CCCCCCCCCCCCCCCC(=O)OCCSC[C@H](NC(C)=O)C(=O)N[C@@H](COC(=O)[C@@H](N)CCCCN)C(=O)OC.Cl.Cl [Compound 25, 2-(((R)-2-Acetamido-3-(((S)-3-(((S)-2,6-diaminohexanoyl)oxy)-1-methoxy-1-oxopropan-2-yl)amino)-3-oxopropyl)thio)ethyl palmitate] | 6.81 | exceptionally water soluble |  | induction of anti-bovine α-lactalbumin IgG responses ([1]; rabbits, prime+single-boost model, FIG. 2): excellent induction; stability of aqueous stocks [2]: unstable
PAM2CSK4 [reference compound] |  |  |  | adjuvanticity ([1]; New Zealand White rabbits, direct comparison with glucopyranosyl lipid A): highly adjuvantic
CCCCCCCCCCCCCCCCOC(=O)NCCSC[C@H](NC(C)=O)C(=O)N[C@@H](CO)C(=O)NCCCN(C)C [Compound 52, Hexadecyl ((8S,11R)-11-acetamido-8-(hydroxymethyl)-2-methyl-7,10-dioxo-13-thia-2,6,9-triazapentadecan-15-yl)carbamate] | 0.279 | restored |  | 
CCCCCCCCCCCCCCCCCC(=O)OCCSC[C@H](N)C(=O)N[C@@H](CO)C(=O)OC [Compound 6e, 2-(((R)-2-amino-3-(((S)-3-hydroxy-1-methoxy-1-oxopropan-2-yl)amino)-3-oxopropyl)thio)ethyl stearate] | 4.79 |  |  | remark beside the EC50 (potency) (human TLR2; [4]): Low potency; agonistic activity in mTLR2 / specificity for hTLR2 (murine TLR2): entirely inactive
CCCCCCCCCCCCCCCC(=O)OCCSC[C@H](NC(C)=O)C(=O)N[C@@H](COS(=O)(=O)O)C(=O)OC [Compound 26, 2-(((R)-2-Acetamido-3-(((S)-1-methoxy-1-oxo-3-(sulfooxy)propan-2-yl)amino)-3-oxopropyl)thio)ethyl palmitate] | 7.1 | exceptionally water soluble |  | 
CCCCCCCCCCCCCCCCOC(=O)NCCSC[C@H](NC(C)=O)C(=O)N[C@@H](CO)C(=O)NCc1ccc(Cn2c(CCCC)nc3c(N)nc4ccccc4c32)cc1 [Compound 54, Hexadecyl(2-(((R)-2-acetamido-3-(((S)-1-((4-((4-amino-2-butyl-1H-imidazo[4,5-c]quinolin-1-yl)methyl)benzyl)amino)-3-hydroxy-1-oxopropan-2-yl)amino)-3-oxopropyl)thio)ethyl)carbamate] | 221 |  | less active than their parent compounds | activity in TLR7 cell line (TLR7): less active than their parent compounds
CCCCCCCCCCCCCCCC(=O)OCCSC[C@H](N)C(=O)N[C@@H](CO)C(=O)OC [Compound 6d] |  | water-soluble |  | EC50 (human TLR2; hTLR2 reporter gene assay, read-out: EC50 in engaging hTLR2): 3.6 nM; remark beside the EC50 (potency) (human TLR2; [4]): Low potency; agonistic activity in mTLR2 / specificity for hTLR2 (murine TLR2): activating human TLR2 (hTLR2), but not murine TLR2 (mTLR2); also recorded: entirely inactive
CCCCCCCCCCCCCCCC(=O)OCCSC[C@H](NC(C)=O)C(=O)N[C@@H](CCCCN)C(=O)OC [Compound 23, 2-(((R)-2-Acetamido-3-(((S)-6-amino-1-methoxy-1-oxohexan-2-yl)amino)-3-oxopropyl)thio)ethyl palmitate] | 0.225 | highly water soluble |  | stability of aqueous stocks [2]: significant loss of activity of aqueous stocks within about a week
CCCCCCCCCCCCCCCC(=O)OCCSC[C@H](NC(C)=O)C(=O)N[C@@H](COC(=O)CCC(=O)O)C(=O)OC [Compound 27, (7S,10R)-10-Acetamido-7-(methoxycarbonyl)-4,9,16-trioxo-5,15-dioxa-12-thia-8-azahentriacontan-1-oic acid] | 0.518 | exceptionally water soluble |  | 
COC(=O)[C@H](CO)NC(=O)[C@@H](N)CSCCOC(=O)c1ccc(-c2ccc(-c3ccccc3)cc2)cc1 [Compound 6h] |  |  | complete absence of activity | 
CCCCCCCCCCCCCCCC(=O)OCCSC[C@H](NC(=O)CCCCCCC)C(=O)N[C@@H](CO)C(=O)OC [Compound 11f, 2-(((R)-3-(((S)-3-hydroxy-1-methoxy-1-oxopropan-2-yl)amino)-2-octanamido-3-oxopropyl)thio)ethyl palmitate] | 3.8 |  |  | 
CCCCCCCCCCCCCCCC(=O)NCCSC[C@H](NC(C)=O)C(=O)N[C@@H](CO)C(=O)OC [Compound 34, (S)-Methyl 2-((R)-2-acetamido-3-((2-palmitamidoethyl)thio)propanamido)-3-hydroxypropanoate] | 11.8 |  |  | 
COC(=O)[C@H](CO)NC(=O)[C@@H](N)CSCCOC(=O)c1ccc(-c2ccccc2)cc1 [Compound 6f, 2-(((R)-2-amino-3-(((S)-3-hydroxy-1-methoxy-1-oxopropan-2-yl)amino)-3-oxopropyl)thio)ethyl[1,1′-biphenyl]-4-carboxylate] | > 10000 |  | complete absence of activity | 
COC(=O)[C@H](CO)NC(=O)[C@@H](N)CSCCOC(=O)c1cccc(-c2ccccc2)c1 [Compound 6g, 2-(((R)-2-amino-3-(((S)-3-hydroxy-1-methoxy-1-oxopropan-2-yl)amino)-3-oxopropyl)thio)ethyl[1,1′-biphenyl]-3-carboxylate] | > 10000 |  | complete absence of activity | 
CCCCCCCCCCCCCCCC(=O)OCCSC[C@H](NS(=O)(=O)C(F)(F)F)C(=O)N[C@@H](CO)C(=O)OC [Compound 11k, 2-(((R)-3-(((S)-3-hydroxy-1-methoxy-1-oxopropan-2-yl)amino)-3-oxo-2-(trifluoromethyl-sulfonamido)propyl)thio)ethyl palmitate] | > 10000 |  | inactive | 
CCCCCCCCCCCCCCCC(=O)OCCCSC[C@H](N)C(=O)N[C@@H](CO)C(=O)OC [Compound 15, 3-((R)-2-amino-3-((S)-3-hydroxy-1-methoxy-1-oxopropan-2-ylamino)-3-oxopropylthio)propyl palmitate] | > 10000 |  | inactive | 
CCCCCCCCCCCC(=O)O[C@H](CCCCCCCCCCC)CC(=O)OCCSC[C@H](NC(C)=O)C(=O)N[C@@H](CO)C(=O)OC [Compound 87] | 20.7 |  |  | 
CCCCCCCCCCCCCCCC(=O)OCCSC[C@H](N)C(=O)N[C@@H](COC(=O)CCC)C(=O)OC [Compound 14b, 2-(((R)-2-amino-3-(((S)-3-(butyryloxy)-1-methoxy-1-oxopropan-2-yl)amino)-3-oxopropyl)thio)ethyl palmitate] | 5.47 |  |  | 
CCCC(=O)OCCSC[C@H](N)C(=O)N[C@@H](CO)C(=O)OC [Compound 6a, 2-(((R)-2-Amino-3-(((S)-3-Hydroxy-1-Methoxy-1-oxopropan-2-yl)amino)-3-oxopropyl)thio)ethyl butyrate] | > 10000 |  |  | 
